Source: PMC5996347, “2-Mercapto-Quinazolinones as Inhibitors of Type II NADH Dehydrogenase and Mycobacterium tuberculosis: Structure–Activity Relationships, Mechanism of Action and Absorption, Distribution, Metabolism, and Excretion Characterization” (ACS Infectious Diseases, 2018)
Converted amounts (≈) assume the structure as drawn. Read-outs that look alike come from different tables or passages of the source.

What was measured:
wild-type MTb H37Rv = assay: CFU after 7 days of treatment, wild-type; assay type: cell-based, Mycobacterium tuberculosis; details: treatment at MIC concentrations
Protocol: Figure 4 Mtb lacking the alternative type II NADH dehydrogenase encoded by ndhA was more susceptible to compound 1. Colony-forming units (CFU) after 7 days of treatment as compared to CFU at start of drug treatment (inoculum). Unpaired t test comparison between WT and ΔndhA at 0.5 μM compound 1: two-tailed P-value = 0.0023.

M. tuberculosis H37Rv = assay: microbe, parasite or virus in culture; assay type: cell-based; details: Mycobacterium tuberculosis
physchem = assay type: physicochemical; details: water, kinetic from dmso stock, Kinetic solubility
Protocol: The aqueous solubility of the test compounds was measured using laser nephelometry. Compounds were subject to serial dilution from 10 to 0.5 mM in DMSO. An aliquot was then mixed with Milli-Q water to obtain an aqueous dilution plate with a final concentration range of 250–12 μM, with a final DMSO concentration of 2.5%. Triplicate aliquots were transferred to a flat bottomed polystyrene plate which was immediately read on the NEPHELOstar (BMG Lab Technologies). The amount of laser scatter caused by insoluble particulates (relative nephelometry units, RNU) was plotted against compound concentration using a segmental regression fit, with the point of inflection being quoted as the compounds aqueous solubility (μM).

Mouse pharmacokinetics = assay type: in vivo, female C57Bl/6 mice; details: female
Protocol: Test compound was dosed as a bolus solution intravenously at 3 mg free base/kg (dose volume: 5 mL/kg; dose vehicle: 10% DMSO; 40% PEG400; 50% saline) to female C57Bl/6 mice (n = 3) or dosed orally by gavage as a suspension at 10 or at 5, 30, or 100 mg free base/kg (dose volume: 10 mL/kg; dose vehicle: 1.0% carboxy methyl cellulose) to female C57Bl/6 mice (n = 3/dose level). Blood samples were taken from each mouse tail vein at predetermined time points postdose, mixed with nine volumes of distilled water, and stored frozen until UPLC-MS/MS analysis. Pharmacokinetic parameters were derived from the blood concentration time curve using PK Solutions software v 2.0 (Summit Research Services, USA).

[1] = target: T1, recombinant MBP-MtNdh (MTb NDH-2) (Mycobacterium tuberculosis, UniProt P95160); assay: Ndh activity assay (NADH oxidation at 340 nm); assay type: biochemical
T1 construct: The ORF corresponding to Rv1854c was codon optimized for E. coli; made in house; host or cells: E. coli BL21 (DE3) pLysS

[2] = mouse liver microsomes
in vitro = in vitro ADME; details: PAMPA, pH 7.4
Protocol: The permeability was performed using a 96-well precoated BD Gentest PAMPA plate (BD Biosciences, U.K.). Each well was divided into two chambers: donor and acceptor, separated by a lipid-oil-lipid trilayer constructed in a porous filter. The effective permeability, Pe, of the compound was measured at pH 7.4. Stock solutions (5 mM) of the compound were prepared in DMSO. The compound was then further diluted to 10 μM in phosphate buffered saline at pH 7.4. […] The compound dissolved in phosphate buffered saline was then added to the donor side of the membrane, and phosphate buffered saline without compound was added to the acceptor side. The PAMPA plate was left at room temperature for 5 h; after which time, an aliquot (100 μL) was then removed from both acceptor and donor compartments and mixed with acetonitrile (80 μL) containing an internal standard: donepezil at 50 ng/mL). The samples were centrifuged (10 min, 5 °C, 3270g) to sediment precipitated protein and sealed prior to UPLC-MS/MS analysis using a Quattro Premier XE (Waters Corp, USA). Pe was calculated as shown in the below equation. [drawing 2] where CA(t) = peak area of compound present in acceptor well at time (t) = 18 000 s; Cequi = [CD(t) × VD + CA(t) × VA]/(VD + VA); A = filter area; VD = donor well volume; VA = acceptor well volume; t = incubation time; CD(t) = peak area of compound present in donor well at time (t) = 18 000 s. Recovery of compound from donor and acceptor wells was calculated, and data was only accepted when recovery exceeded 70%.

[3] = assay type: in vitro ADME; details: mouse, plasma
Protocol: In brief, a 96-well equilibrium dialysis apparatus was used to determine the free fraction in plasma for each compound (HT Dialysis LLC, Gales Ferry, CT). Membranes (12–14 kDaA cutoff) were conditioned in deionized water for 60 min, followed by conditioning in 80:20 deionized water/ethanol overnight and then rinsed in water and isotonic buffer before use. Mouse plasma from appropriate species was removed from the freezer and allowed to thaw on the day of experiment. Thawed plasma was then centrifuged (Allegra X12-R, Beckman Coulter, USA) and spiked with test compound (final concentration 10 μg/mL), and 150 μL aliquots (n = 3 replicate determinations) were loaded into the 96-well equilibrium dialysis plate. Dialysis against isotonic buffer (150 μL) was carried out for 5 h in a temperature controlled incubator at ca. 37 °C (Barworld scientific Ltd., UK) using an orbital microplate shaker at 100 rpm (Barworld scientific Ltd., UK). At the end of the incubation period, 50 μL aliquots of plasma or buffer were transferred into a 96-well deep plate and the composition in each well was balanced with control fluid (50 μL), such that the volume of buffer to plasma is the same. Sample extraction was performed by the addition of 200 μL of acetonitrile containing an appropriate internal standard. Samples were allowed to mix for 1 min and then centrifuged at 3000 rpm in 96-well blocks for 15 min (Allegra X12-R, Beckman Coulter, USA) after which 150 μL of supernatant was removed to 50 μL of water. All samples were analyzed by UPLC-MS/MS on a Quattro Premier XE Mass Spectrometer (Waters Corporation, USA). The unbound fraction was determined as the ratio of the peak area in buffer to that in plasma.

[4] = tested on: MTb H37Rv in J774 macrophages; assay: Activity against MTb in infected macrophages; assay type: cell-based, Mycobacterium tuberculosis; details: 7 days of drug treatment, CFU
Protocol: Figure S7. […] J774 macrophages in
24w plates (500,000 cells per well) were infected with MTb H37Rv at an MOI of 1:1 for 24 hours. Infected cells were washed three times and supplemented with macrophage growth medium with compounds at the indicated concentrations or the DMSO solvent. Cell medium was replenished every 3 days and cells lyzed after 7 days of drug treatment and plated on 7H11/OADC plates for CFU enumeration.
(1 picture or pasted object on this page, not shown here)

[5] = Calculated properties (StarDrop)
[6] = C57Bl/6, mouse, in vivo, po, 10 mg/kg

T1 sequence (P95160 whole entry): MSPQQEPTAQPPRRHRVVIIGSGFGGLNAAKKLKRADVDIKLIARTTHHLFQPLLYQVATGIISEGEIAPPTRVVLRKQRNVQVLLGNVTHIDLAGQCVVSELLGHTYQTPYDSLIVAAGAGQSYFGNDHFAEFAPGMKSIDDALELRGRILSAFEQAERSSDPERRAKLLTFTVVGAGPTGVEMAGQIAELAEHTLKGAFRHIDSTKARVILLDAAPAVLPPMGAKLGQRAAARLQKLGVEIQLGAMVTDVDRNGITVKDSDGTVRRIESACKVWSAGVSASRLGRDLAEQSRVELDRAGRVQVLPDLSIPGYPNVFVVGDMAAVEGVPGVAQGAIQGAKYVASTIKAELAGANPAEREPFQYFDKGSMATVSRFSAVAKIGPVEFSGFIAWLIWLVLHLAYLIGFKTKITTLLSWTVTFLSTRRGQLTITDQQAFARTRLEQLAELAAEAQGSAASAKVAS

O=C(CSc1nc2ccccc2c(=O)[nH]1)NC1CCCCC1 [Compound 1, N-Cyclohexyl-2-((4-oxo-3,4-dihydroquinazolin-2-yl)thio)acetamide]
Growth of wild-type MTb H37Rv over 7 days (wild-type MTb H37Rv): could not fully suppress growth
MIC (M. tuberculosis H37Rv; read-out: 7H9-ADC MIC): 0.6 µM
MIC (M. tuberculosis H37Rv; read-out: 7H9-ADC MIC in ng/mL): 190 ng/mL
solubility kinetic (physchem): 83 µM (≈ 26.3 µg/mL)
Clb (Mouse pharmacokinetics; C57Bl/6, mouse, in vivo): 23 mL/min/kg
Vd (Mouse pharmacokinetics; C57Bl/6, mouse, in vivo): 0.8 L/kg
bioavailability (Mouse pharmacokinetics; C57Bl/6, mouse, in vivo): 46%
AUC(0-t) (Mouse pharmacokinetics; [6]): 2610 ng·h/mL
Cmax (Mouse pharmacokinetics; [6]): 748 ng/mL
half-life (Mouse pharmacokinetics; C57Bl/6, whole blood, C57 mouse PK at 3 iv and 10 po (mg/kg), 1 free base, 7 HCl salt): 1.5 h
IC50 ([1]; NADH 250 μM, Q2 40 μM, mean ± SD, Figure 6 inset, read-out: IC50 against MBP-MtNdh): 23 ± 8 nM
Ki ([1]; varying Q2 or NADH, double reciprocal plots, read-out: Ki against MtNdh): 30 to 40 nM
Mode of inhibition against MtNdh ([1]; versus Q2 and NADH): noncompetitive mode of inhibition with both substrates
Mouse microsomal metabolite identification [2]: significant oxidation of the cyclohexyl and quinazolin-4(3H)-one rings as well as cleavage of the amide bond
Papp at 5 h, 10 μM (in vitro): 8.3 ×10⁻⁶ cm/s
PPB (% unbound) [3]: 14 % unbound
Activity against MTb growing in infected macrophages [4]: lacked activity
PFI [5]: 4.7
